ChEMBL document CHEMBL4507265 (2021)

Key:
[1] = target: Ephrin type-A receptor 5 (Homo sapiens) (UniProt P54756); conditions: Compound concentration 1000.0 nM
[2] = target: Ribosomal protein S6 kinase alpha-6 (Homo sapiens) (UniProt Q9UK32); conditions: Compound concentration 1000.0 nM
[3] = test system: Fibroblast growth factor receptor 3 (Homo sapiens), P22607 [G697C]; conditions: Compound concentration 1000.0 nM
[4] = target: Serine/threonine-protein kinase D2 (Homo sapiens) (UniProt Q9BZL6); conditions: Compound concentration 1000.0 nM
[5] = target: Serine/threonine-protein kinase pim-2 (Homo sapiens) (UniProt Q9P1W9); conditions: Compound concentration 1000.0 nM
[6] = target: Tyrosine-protein kinase Mer (Homo sapiens) (UniProt Q12866); conditions: Compound concentration 1000.0 nM
[7] = target: MAP kinase-interacting serine/threonine-protein kinase 2 (Homo sapiens) (UniProt Q9HBH9); conditions: Compound concentration 1000.0 nM
[8] = target: Delta-type opioid receptor (Homo sapiens) (UniProt P41143); conditions: Compound concentration 10.0 uM
[9] = target: Cyclin-dependent kinase-like 2 (Homo sapiens) (UniProt Q92772); conditions: Compound concentration 1000.0 nM
[10] = target: Serine/threonine-protein kinase 32B (Homo sapiens) (UniProt Q9NY57); conditions: Compound concentration 1000.0 nM
[11] = target: Vascular endothelial growth factor receptor 2 (Homo sapiens) (UniProt P35968); conditions: Compound concentration 1000.0 nM
[12] = target: Ribosomal protein S6 kinase alpha-5 (Homo sapiens) (UniProt O75582); conditions: Compound concentration 1000.0 nM
[13] = target: Myosin-IIIa (Homo sapiens) (UniProt Q8NEV4); conditions: Compound concentration 1000.0 nM
[14] = target: Ephrin type-A receptor 7 (Homo sapiens) (UniProt Q15375); conditions: Compound concentration 1000.0 nM
[15] = target: Serine/threonine-protein kinase Nek10 (Homo sapiens) (UniProt Q6ZWH5); conditions: Compound concentration 1000.0 nM
[16] = target: Serine/threonine-protein kinase 32A (Homo sapiens) (UniProt Q8WU08); conditions: Compound concentration 1000.0 nM
[17] = target: Cyclin-dependent kinase 16 (Homo sapiens) (UniProt Q00536); conditions: Compound concentration 1000.0 nM
[18] = target: Serine/threonine-protein kinase ULK2 (Homo sapiens) (UniProt Q8IYT8); conditions: Compound concentration 1000.0 nM
[19] = target: Sodium-dependent serotonin transporter (Homo sapiens) (UniProt P31645); conditions: Compound concentration 10.0 uM
[20] = target: Phosphorylase b kinase regulatory subunit alpha, liver isoform (Homo sapiens) (UniProt P46019); conditions: Compound concentration 1000.0 nM
[21] = target: 5'-AMP-activated protein kinase catalytic subunit alpha-1 (Homo sapiens) (UniProt Q13131); conditions: Compound concentration 1000.0 nM
[22] = target: Uncharacterized serine/threonine-protein kinase SBK3 (Homo sapiens) (UniProt P0C264); conditions: Compound concentration 1000.0 nM
[23] = target: Serine/threonine-protein kinase Sgk2 (Homo sapiens) (UniProt Q9HBY8); conditions: Compound concentration 1000.0 nM
[24] = target: TGF-beta receptor type-1 (Homo sapiens) (UniProt P36897); conditions: Compound concentration 1000.0 nM
[25] = test system: Mast/stem cell growth factor receptor Kit (Homo sapiens), P10721 [V559D,T670I]; conditions: Compound concentration 1000.0 nM
[26] = target: Serine/threonine-protein kinase PAK 1 (Homo sapiens) (UniProt Q13153); conditions: Compound concentration 1000.0 nM
[27] = target: Tyrosine-protein kinase ABL2 (Homo sapiens) (UniProt P42684); conditions: Compound concentration 1000.0 nM
[28] = test system: Receptor-type tyrosine-protein kinase FLT3 (Homo sapiens), P36888 [R834Q]; conditions: Compound concentration 1000.0 nM
[29] = test system: Mast/stem cell growth factor receptor Kit (Homo sapiens), P10721 [V559D]; conditions: Compound concentration 1000.0 nM
[30] = target: Interleukin-1 receptor-associated kinase 3 (Homo sapiens) (UniProt Q9Y616); conditions: Compound concentration 1000.0 nM
[31] = target: Serine/threonine-protein kinase BRSK2 (Homo sapiens) (UniProt Q8IWQ3); conditions: Compound concentration 1000.0 nM
[32] = target: TRAF2 and NCK-interacting protein kinase (Homo sapiens) (UniProt Q9UKE5); conditions: Compound concentration 1000.0 nM
[33] = target: Serine/threonine-protein kinase Nek11 (Homo sapiens) (UniProt Q8NG66); conditions: Compound concentration 1000.0 nM
[34] = test system: Phosphatidylinositol 4,5-bisphosphate 3-kinase catalytic subunit alpha isoform (Homo sapiens), P42336 [H1047L]; conditions: Compound concentration 1000.0 nM
[35] = target: LIM domain kinase 2 (Homo sapiens) (UniProt P53671); conditions: Compound concentration 1000.0 nM
[36] = target: Mitogen-activated protein kinase kinase kinase 13 (Homo sapiens) (UniProt O43283); conditions: Compound concentration 1000.0 nM
[37] = target: Hormonally up-regulated neu tumor-associated kinase (Homo sapiens) (UniProt P57058); conditions: Compound concentration 1000.0 nM
[38] = target: Ribosomal protein S6 kinase alpha-2 (Homo sapiens) (UniProt Q15349); conditions: Compound concentration 1000.0 nM
[39] = target: Serine/threonine-protein kinase VRK2 (Homo sapiens) (UniProt Q86Y07); conditions: Compound concentration 1000.0 nM
[40] = test system: Epidermal growth factor receptor (Homo sapiens), P00533 [UNDEFINED MUTATION]; conditions: Compound concentration 1000.0 nM
[41] = target: Phosphatidylinositol 4,5-bisphosphate 3-kinase catalytic subunit beta isoform (Homo sapiens) (UniProt P42338); conditions: Compound concentration 1000.0 nM
[42] = target: Focal adhesion kinase 1 (Homo sapiens) (UniProt Q05397); conditions: Compound concentration 1000.0 nM
[43] = target: Bone morphogenetic protein receptor type-2 (Homo sapiens) (UniProt Q13873); conditions: Compound concentration 1000.0 nM
[44] = target: Calcium/calmodulin-dependent protein kinase type IV (Homo sapiens) (UniProt Q16566); conditions: Compound concentration 1000.0 nM
[45] = target: Tyrosine-protein kinase receptor TYRO3 (Homo sapiens) (UniProt Q06418); conditions: Compound concentration 1000.0 nM

Fibroblast growth factor receptor 3 (Homo sapiens), P22607 [G697C], sequence (P22607 whole entry G697C): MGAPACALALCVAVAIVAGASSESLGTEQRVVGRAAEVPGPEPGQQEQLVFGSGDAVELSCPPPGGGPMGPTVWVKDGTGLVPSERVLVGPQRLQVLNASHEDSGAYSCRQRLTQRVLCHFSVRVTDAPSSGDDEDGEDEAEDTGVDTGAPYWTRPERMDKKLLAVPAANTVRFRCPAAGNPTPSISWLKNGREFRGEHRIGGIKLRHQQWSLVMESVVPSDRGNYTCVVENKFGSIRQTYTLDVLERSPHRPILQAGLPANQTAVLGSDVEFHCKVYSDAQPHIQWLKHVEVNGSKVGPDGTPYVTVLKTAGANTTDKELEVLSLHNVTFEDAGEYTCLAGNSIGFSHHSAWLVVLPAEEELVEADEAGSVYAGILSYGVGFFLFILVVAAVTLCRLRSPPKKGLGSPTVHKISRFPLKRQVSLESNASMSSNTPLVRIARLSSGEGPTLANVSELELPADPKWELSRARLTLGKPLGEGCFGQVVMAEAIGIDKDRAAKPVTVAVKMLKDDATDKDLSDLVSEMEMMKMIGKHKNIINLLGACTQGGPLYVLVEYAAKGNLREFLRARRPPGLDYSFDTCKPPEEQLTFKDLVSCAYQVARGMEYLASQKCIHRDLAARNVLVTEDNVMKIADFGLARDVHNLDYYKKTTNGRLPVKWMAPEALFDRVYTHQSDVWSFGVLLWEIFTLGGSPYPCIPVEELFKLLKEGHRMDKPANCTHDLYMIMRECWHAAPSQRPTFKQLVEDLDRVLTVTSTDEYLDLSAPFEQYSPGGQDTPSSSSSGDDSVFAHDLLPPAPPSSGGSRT
Serine/threonine-protein kinase D2 (Homo sapiens), sequence (Q9BZL6 whole entry): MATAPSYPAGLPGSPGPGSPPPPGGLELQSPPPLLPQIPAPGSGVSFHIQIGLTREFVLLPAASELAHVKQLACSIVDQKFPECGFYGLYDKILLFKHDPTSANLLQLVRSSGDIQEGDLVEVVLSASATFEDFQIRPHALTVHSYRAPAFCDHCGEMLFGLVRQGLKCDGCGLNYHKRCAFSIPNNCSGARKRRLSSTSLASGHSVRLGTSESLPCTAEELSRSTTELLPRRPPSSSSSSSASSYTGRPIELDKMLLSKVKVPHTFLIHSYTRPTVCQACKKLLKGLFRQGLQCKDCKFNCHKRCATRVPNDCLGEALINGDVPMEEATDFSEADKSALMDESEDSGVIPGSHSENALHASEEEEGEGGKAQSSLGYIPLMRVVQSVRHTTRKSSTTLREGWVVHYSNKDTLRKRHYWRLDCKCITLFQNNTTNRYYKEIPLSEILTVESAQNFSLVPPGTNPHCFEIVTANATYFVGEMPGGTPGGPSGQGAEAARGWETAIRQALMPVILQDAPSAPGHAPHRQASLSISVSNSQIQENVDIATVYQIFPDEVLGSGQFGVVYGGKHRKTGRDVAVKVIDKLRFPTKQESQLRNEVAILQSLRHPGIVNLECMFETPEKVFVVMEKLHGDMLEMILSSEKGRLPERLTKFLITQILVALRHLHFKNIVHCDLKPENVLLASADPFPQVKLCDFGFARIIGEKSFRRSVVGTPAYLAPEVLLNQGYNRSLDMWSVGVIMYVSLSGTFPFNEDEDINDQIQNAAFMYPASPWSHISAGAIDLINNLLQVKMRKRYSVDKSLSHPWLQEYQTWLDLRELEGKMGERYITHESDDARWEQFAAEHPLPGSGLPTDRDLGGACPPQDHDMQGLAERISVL
TRAF2 and NCK-interacting protein kinase (Homo sapiens), sequence (Q9UKE5 whole entry, looked up): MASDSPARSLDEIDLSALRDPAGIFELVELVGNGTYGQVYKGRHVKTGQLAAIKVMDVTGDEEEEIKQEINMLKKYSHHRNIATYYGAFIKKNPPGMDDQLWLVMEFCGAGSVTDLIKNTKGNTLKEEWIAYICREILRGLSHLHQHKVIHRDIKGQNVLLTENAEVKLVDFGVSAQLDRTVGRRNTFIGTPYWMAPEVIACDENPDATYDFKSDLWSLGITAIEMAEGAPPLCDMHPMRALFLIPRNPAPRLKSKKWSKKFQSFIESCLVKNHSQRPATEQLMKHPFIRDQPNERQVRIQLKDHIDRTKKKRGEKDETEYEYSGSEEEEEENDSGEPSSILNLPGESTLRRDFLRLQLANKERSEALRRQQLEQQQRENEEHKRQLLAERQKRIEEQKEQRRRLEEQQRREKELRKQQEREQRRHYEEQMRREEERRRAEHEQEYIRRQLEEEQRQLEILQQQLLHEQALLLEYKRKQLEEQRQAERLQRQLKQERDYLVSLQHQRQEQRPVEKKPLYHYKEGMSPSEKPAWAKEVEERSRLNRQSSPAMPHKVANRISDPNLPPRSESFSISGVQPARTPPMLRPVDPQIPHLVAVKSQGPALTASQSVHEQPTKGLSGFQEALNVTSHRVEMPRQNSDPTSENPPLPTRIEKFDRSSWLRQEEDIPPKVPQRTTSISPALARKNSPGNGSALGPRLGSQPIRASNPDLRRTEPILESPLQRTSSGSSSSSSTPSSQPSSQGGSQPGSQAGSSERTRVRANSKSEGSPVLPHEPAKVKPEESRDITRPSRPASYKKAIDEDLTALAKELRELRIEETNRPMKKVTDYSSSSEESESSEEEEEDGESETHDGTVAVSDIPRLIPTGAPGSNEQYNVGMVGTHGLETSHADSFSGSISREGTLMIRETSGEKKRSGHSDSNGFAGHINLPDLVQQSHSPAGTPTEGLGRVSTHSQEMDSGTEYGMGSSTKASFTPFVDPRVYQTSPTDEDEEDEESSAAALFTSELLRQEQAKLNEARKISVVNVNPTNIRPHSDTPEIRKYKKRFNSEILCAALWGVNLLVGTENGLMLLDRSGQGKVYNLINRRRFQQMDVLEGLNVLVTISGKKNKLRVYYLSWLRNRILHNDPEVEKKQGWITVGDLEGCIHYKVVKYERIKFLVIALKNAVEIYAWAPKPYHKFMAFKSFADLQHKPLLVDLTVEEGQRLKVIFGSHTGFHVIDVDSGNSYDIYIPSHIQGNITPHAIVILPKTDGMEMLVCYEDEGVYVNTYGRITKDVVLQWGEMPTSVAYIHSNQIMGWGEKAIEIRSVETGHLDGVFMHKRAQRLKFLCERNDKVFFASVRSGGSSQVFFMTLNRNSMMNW
Tyrosine-protein kinase Mer (Homo sapiens), sequence (Q12866 whole entry): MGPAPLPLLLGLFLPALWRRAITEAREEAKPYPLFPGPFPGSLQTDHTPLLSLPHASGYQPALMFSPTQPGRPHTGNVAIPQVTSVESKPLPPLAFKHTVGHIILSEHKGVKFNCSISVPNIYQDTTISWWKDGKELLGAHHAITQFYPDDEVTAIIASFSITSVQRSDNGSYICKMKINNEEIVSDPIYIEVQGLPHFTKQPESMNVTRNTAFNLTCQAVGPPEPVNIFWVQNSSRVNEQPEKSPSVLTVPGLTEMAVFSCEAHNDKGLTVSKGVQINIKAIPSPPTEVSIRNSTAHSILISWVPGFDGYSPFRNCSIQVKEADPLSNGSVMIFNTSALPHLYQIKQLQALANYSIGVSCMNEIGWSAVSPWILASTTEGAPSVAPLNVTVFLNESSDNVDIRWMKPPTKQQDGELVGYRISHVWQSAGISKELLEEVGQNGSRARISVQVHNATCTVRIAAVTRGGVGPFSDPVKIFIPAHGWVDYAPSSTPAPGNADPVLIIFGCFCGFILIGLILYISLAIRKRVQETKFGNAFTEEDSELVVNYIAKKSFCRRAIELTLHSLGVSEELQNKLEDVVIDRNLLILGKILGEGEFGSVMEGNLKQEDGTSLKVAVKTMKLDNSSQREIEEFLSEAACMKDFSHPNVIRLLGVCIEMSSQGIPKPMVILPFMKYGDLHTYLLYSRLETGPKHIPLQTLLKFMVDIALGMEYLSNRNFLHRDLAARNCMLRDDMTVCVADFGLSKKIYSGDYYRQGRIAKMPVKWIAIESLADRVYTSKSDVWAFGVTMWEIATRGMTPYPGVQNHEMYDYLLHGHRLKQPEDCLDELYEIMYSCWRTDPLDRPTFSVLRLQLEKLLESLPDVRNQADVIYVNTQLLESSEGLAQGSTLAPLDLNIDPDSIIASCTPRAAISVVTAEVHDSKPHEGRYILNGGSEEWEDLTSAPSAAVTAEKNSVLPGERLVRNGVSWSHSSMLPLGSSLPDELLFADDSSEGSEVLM
Cyclin-dependent kinase-like 2 (Homo sapiens), sequence (Q92772 whole entry): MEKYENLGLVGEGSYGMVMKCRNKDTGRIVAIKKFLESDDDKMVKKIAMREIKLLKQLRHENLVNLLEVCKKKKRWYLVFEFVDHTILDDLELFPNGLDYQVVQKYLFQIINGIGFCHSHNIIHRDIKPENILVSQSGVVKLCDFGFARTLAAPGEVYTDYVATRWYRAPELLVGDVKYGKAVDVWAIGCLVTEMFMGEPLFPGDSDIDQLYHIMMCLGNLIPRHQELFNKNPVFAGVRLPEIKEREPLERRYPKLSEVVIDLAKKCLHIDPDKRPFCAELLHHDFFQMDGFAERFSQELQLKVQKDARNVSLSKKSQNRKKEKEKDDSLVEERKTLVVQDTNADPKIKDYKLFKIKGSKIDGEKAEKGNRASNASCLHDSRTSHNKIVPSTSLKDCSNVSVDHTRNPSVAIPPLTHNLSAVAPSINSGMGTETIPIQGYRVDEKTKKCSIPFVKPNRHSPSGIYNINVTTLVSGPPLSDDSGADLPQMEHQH
Serine/threonine-protein kinase Sgk2 (Homo sapiens), sequence (Q9HBY8 whole entry): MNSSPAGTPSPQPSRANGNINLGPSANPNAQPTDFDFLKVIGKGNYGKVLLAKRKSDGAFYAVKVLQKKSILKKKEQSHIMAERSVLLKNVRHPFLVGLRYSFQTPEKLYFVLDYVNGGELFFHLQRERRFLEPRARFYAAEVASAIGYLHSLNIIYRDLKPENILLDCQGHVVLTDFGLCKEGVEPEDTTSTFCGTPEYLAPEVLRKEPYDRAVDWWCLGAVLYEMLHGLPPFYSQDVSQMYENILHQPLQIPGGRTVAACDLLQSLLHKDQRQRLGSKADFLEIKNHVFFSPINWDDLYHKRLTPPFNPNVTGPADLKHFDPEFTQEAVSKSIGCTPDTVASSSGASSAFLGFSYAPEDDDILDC

NS(=O)(=O)c1cc(NC(=O)C2(c3ccccc3Cl)CC2)ccc1Oc1cccc(Cl)c1 [BAY-207]
active: residual activity [44] 43%
inactive: residual activity [1] 79% | residual activity [2] 96% | residual activity [3] 100% | residual activity [4] 87% | residual activity [5] 76% | residual activity [6] 70% | residual activity [7] 100% | inhibition [8] 41.6% | residual activity [9] 94% | residual activity [10] 91% | residual activity [11] 74% | residual activity [12] 90% | residual activity [13] 93% | residual activity [14] 82% | residual activity [15] 89% | residual activity [16] 90% | residual activity [17] 100% | residual activity [18] 100% | inhibition [19] 8.86% | residual activity [20] 100% | residual activity [21] 80% | residual activity [22] 74% | residual activity [23] 100% | residual activity [24] 82% | residual activity [25] 85% | residual activity [26] 79% | residual activity [27] 80% | residual activity [28] 100% | residual activity [29] 79% | residual activity [30] 75% | residual activity [31] 87% | residual activity [32] 100% | residual activity [33] 100% | residual activity [34] 98% | residual activity [35] 82% | residual activity [36] 100% | residual activity [37] 75% | residual activity [38] 100% | residual activity [39] 100% | residual activity [40] 57% | residual activity [41] 100% | residual activity [42] 87% | residual activity [43] 100% | residual activity [45] 100%

NS(=O)(=O)c1cc(NC(=O)Cc2ccccc2)ccc1Oc1cccc(Cl)c1 [BAY-1797]
inactive: residual activity [1] 62% | residual activity [2] 59% | residual activity [3] 100% | residual activity [4] 85% | residual activity [5] 100% | residual activity [6] 82% | residual activity [7] 86% | inhibition [8] 20.5% | residual activity [9] 99% | residual activity [10] 100% | residual activity [11] 77% | residual activity [12] 100% | residual activity [13] 100% | residual activity [14] 92% | residual activity [15] 89% | residual activity [16] 100% | residual activity [17] 92% | residual activity [18] 52% | inhibition [19] 22.7% | residual activity [20] 100% | residual activity [21] 71% | residual activity [22] 100% | residual activity [23] 85% | residual activity [24] 100% | residual activity [25] 83% | residual activity [26] 88% | residual activity [27] 87% | residual activity [28] 91% | residual activity [29] 81% | residual activity [30] 87% | residual activity [31] 91% | residual activity [32] 93% | residual activity [33] 100% | residual activity [34] 96% | residual activity [35] 88% | residual activity [36] 73% | residual activity [37] 84% | residual activity [38] 89% | residual activity [39] 100% | residual activity [40] 67% | residual activity [41] 84% | residual activity [42] 96% | residual activity [43] 73% | residual activity [44] 100% | residual activity [45] 76%
